Results: paper PMC3145970, “Specific CLK Inhibitors from a Novel Chemotype for Regulation of Alternative Splicing” (Chemistry & Biology, 2011)
Where two headings read alike, the source gives them in different places.

Experiments:
Assay in all cases: Thermal stability shift assay
Format in all cases: binding
[1] = biological target: CHK2 (Homo sapiens, UniProt O96017); conditions: read-out: Tm shift CHK2
Summary of the method: (§1)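 Inhibitor (10 μM) was mixed with kinase (2 μM) in HEPES-buffered saline (10 mM, pH 7.5; 500 mM NaCl) plus SyproOrange, then the sample was heated stepwise in a real-time PCR machine to record denaturation.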

[2] = biological target: CaMK2a (Homo sapiens, UniProt Q9UQM7); conditions: read-out: Tm shift CaMK2a
Chain of CaMK2a (Q9UQM7 whole entry): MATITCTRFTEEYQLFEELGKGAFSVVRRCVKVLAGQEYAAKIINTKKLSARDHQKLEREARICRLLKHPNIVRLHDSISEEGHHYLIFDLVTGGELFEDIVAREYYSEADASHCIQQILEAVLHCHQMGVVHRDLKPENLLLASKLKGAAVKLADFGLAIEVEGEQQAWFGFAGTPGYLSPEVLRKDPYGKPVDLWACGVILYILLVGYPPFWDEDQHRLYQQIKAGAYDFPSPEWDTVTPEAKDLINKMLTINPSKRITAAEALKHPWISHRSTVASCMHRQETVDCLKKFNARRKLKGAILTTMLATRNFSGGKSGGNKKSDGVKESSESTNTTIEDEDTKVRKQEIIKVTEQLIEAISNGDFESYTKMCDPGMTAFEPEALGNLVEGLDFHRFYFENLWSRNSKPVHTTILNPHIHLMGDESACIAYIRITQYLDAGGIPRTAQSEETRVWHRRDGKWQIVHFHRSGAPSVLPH
Summary of the method: as §1

[3] = biological target: T1, GAK (Homo sapiens, UniProt O14976); conditions: read-out: Tm shift GAK
T1 construct: purchased in-house (SGC Oxford thermal shift panel)
T1 sequence (O14976 1-1311): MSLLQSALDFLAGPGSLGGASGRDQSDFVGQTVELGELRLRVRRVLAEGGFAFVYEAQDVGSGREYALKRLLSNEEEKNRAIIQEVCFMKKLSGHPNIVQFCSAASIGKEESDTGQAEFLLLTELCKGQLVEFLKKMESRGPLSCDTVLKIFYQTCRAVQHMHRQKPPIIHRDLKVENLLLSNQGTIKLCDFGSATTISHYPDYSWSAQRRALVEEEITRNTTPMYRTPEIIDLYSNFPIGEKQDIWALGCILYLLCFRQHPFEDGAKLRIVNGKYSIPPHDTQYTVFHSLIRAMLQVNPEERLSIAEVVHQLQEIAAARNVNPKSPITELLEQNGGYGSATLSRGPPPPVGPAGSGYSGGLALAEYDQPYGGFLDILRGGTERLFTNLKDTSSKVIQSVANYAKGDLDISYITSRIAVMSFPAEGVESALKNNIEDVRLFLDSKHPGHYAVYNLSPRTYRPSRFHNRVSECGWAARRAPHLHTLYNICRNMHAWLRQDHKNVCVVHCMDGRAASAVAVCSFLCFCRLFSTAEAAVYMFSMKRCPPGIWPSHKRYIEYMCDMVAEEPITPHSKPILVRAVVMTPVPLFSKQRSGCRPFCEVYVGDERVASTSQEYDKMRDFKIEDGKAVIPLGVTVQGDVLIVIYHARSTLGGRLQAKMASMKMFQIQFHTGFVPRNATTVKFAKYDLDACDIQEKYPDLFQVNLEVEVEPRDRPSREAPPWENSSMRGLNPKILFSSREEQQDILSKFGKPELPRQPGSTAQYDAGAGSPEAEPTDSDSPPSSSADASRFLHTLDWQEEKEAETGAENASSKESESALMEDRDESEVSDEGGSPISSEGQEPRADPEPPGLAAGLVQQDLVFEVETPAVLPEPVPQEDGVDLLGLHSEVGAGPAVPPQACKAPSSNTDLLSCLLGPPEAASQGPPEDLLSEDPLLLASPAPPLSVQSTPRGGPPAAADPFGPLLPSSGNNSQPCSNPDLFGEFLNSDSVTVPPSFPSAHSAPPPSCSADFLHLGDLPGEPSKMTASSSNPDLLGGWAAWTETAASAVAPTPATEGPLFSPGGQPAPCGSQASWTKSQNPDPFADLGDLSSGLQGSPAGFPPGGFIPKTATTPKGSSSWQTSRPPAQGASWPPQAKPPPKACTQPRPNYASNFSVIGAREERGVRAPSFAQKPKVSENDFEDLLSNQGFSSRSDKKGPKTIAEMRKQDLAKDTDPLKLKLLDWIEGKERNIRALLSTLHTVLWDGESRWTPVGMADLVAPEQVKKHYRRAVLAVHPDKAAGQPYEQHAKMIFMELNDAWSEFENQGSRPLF
Summary of the method: as §1

[4] = biological target: T2, NEK7 (Homo sapiens, UniProt Q8TDX7); conditions: read-out: Tm shift NEK7
T2 construct: purchased in-house (SGC Oxford thermal shift panel)
T2 sequence (Q8TDX7 whole entry): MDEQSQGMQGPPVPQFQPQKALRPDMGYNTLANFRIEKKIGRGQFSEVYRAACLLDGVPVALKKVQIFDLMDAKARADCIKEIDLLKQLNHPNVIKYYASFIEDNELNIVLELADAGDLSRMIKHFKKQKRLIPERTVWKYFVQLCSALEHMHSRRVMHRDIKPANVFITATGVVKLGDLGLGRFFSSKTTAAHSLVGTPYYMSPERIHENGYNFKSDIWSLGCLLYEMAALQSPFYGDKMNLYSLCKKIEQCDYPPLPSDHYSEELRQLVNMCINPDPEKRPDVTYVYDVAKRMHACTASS
Summary of the method: as §1

[5] = biological target: T3, PLK4 (Homo sapiens, UniProt O00444); conditions: read-out: Tm shift PLK4
T3 sequence (O00444 1-970): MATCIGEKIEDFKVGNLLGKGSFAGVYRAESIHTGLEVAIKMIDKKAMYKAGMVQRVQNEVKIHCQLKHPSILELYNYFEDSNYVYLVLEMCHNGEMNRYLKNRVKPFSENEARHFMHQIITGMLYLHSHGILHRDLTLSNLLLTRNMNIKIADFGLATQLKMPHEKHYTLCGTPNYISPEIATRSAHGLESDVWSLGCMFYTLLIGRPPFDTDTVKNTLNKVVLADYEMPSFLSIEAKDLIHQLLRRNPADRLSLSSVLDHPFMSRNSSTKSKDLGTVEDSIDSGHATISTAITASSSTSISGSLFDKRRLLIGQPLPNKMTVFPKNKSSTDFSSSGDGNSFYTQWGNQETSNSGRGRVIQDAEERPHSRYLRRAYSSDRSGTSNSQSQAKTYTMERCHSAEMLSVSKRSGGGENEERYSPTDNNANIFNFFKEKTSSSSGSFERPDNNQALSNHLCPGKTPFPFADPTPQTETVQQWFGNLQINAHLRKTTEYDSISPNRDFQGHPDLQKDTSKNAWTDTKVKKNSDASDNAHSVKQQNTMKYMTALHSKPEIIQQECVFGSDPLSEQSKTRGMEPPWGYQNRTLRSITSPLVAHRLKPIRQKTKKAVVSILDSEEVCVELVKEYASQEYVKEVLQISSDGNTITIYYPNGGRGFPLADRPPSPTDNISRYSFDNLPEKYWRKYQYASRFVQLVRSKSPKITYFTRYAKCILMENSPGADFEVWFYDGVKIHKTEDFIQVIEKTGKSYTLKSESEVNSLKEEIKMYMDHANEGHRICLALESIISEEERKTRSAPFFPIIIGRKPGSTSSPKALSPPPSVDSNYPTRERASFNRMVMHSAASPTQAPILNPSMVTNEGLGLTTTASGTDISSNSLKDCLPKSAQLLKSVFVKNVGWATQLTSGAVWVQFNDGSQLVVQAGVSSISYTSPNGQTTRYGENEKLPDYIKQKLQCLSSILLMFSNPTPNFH
Summary of the method: as §1

[6] = biological target: T4, RSK2~C (Homo sapiens, UniProt P51812); conditions: read-out: Tm shift RSK2~C
T4 construct: RSK2~C 2.7 12.3 2.0 1.0 1.3 -0.2 0.4
T4 sequence (P51812 422-679 limits assumed): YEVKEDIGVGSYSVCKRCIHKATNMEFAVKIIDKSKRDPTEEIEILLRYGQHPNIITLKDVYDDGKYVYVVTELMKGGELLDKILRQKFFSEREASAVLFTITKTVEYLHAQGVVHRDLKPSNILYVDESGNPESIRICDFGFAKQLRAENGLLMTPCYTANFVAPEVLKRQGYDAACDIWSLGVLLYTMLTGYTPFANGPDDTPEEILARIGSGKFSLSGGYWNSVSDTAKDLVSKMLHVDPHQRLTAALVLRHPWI
Summary of the method: as §1

[7] = biological target: SRPK2 (Homo sapiens, UniProt P78362); conditions: read-out: Tm shift SRPK2
Chain of SRPK2 (P78362 whole entry): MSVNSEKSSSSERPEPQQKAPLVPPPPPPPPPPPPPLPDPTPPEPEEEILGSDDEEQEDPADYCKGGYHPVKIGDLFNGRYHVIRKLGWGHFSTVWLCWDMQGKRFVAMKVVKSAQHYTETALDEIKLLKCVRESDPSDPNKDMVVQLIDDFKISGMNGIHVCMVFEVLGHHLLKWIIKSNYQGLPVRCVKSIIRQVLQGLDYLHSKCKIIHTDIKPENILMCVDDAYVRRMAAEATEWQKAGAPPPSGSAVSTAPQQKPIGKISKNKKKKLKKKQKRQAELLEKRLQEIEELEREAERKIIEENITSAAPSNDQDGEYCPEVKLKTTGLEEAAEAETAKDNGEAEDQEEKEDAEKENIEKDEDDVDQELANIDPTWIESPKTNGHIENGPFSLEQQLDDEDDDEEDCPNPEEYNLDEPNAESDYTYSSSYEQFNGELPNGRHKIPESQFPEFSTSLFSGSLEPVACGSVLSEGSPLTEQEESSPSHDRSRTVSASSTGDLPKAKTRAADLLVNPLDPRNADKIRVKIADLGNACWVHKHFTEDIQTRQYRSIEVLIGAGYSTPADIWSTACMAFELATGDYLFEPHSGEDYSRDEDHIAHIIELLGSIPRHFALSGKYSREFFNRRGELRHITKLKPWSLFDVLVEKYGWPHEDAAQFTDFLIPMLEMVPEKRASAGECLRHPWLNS
Summary of the method: as §1

Chain of CHK2 (O96017 whole entry): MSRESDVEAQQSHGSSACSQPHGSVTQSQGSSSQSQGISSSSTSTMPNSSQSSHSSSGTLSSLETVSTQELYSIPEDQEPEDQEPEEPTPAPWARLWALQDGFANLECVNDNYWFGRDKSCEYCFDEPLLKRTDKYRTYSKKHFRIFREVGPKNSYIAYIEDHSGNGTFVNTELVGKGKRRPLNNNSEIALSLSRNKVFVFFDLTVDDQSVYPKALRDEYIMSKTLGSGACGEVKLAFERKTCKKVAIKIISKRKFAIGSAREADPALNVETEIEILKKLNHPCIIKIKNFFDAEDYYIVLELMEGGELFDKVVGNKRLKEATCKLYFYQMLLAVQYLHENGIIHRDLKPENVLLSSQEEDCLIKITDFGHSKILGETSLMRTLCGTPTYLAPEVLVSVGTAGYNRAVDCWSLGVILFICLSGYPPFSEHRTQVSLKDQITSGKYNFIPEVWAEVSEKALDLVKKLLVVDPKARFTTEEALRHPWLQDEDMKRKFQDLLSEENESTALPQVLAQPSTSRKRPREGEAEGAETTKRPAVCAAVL

ΔTm at 10 µM ([1]; inhibitor 10 μM) [°C] | ΔTm at 10 µM ([2]; inhibitor 10 μM) [°C] | ΔTm at 10 µM ([3]; inhibitor 10 μM) [°C] | ΔTm at 10 µM ([4]; inhibitor 10 μM) [°C] | ΔTm at 10 µM ([5]; inhibitor 10 μM) [°C] | ΔTm at 10 µM ([6]; inhibitor 10 μM) [°C] | ΔTm at 10 µM ([7]; inhibitor 10 μM) [°C] | SMILES | ΔTm at 10 µM [1] [°C] | ΔTm at 10 µM [2] [°C] | ΔTm at 10 µM [3] [°C] | ΔTm at 10 µM [4] [°C] | ΔTm at 10 µM [5] [°C] | ΔTm at 10 µM [6] [°C] | ΔTm at 10 µM [7] [°C]
– | – | – | – | – | – | – | CCOC(=O)c1c(C(C#N)=CN)c2ccc(Cl)c(Cl)c2n1C (mixture of isomers) [KH-CB20, (E/Z)-Ethyl 3-(2-Amino-1-Cyanovinyl)-6,7-Dichloro-1-Methyl-1H-Indole-2-Carboxylate] | 1 | 0.7 | 0.8 | 0.1 | 0.2 | 1 | 0.5
0.3 | 1 | 0.4 | -0.7 | 0.2 | -0.2 | -0.1 | CCOC(=O)c1c(C(C#N)=CN(C)C)c2ccc(Cl)c(Cl)c2n1C (mixture of isomers) [compound 2, (E/Z)-Ethyl 6,7-Dichloro-3-[1-Cyano-2-(Dimethylamino)Vinyl]-1-Methyl-1H-Indole-2-Carboxylate] | – | – | – | – | – | – | –
– | – | – | – | – | – | – | CCOC(=O)c1c(/C(C#N)=C\N)c2ccc(Cl)c(Cl)c2n1C [KH-CB19, (E)-Ethyl 3-(2-Amino-1-Cyanovinyl)-6,7-Dichloro-1-Methyl-1H-Indole-2-Carboxylate] | 0.4 | 0.5 | 0.4 | 0 | 0.7 | 2 | 0.1
0.5 | 0.5 | 0.8 | 0.6 | 0.5 | 1.3 | 0.2 | Cn1c2c(Cl)c(Cl)ccc2c2c(C#N)c[nH]c(=O)c21 [compound 3, 7,8-Dichloro-9-Methyl-1-Oxo-2,9-Dihydro-1H-Pyrido[3,4-b]Indole-4-Carbonitrile] | – | – | – | – | – | – | –

SMILES | ΔTm at 10 µM ([1]; inhibitor 10 μM) [°C] | ΔTm at 10 µM ([2]; inhibitor 10 μM) [°C] | ΔTm at 10 µM ([3]; inhibitor 10 μM) [°C] | ΔTm at 10 µM ([4]; inhibitor 10 μM) [°C] | ΔTm at 10 µM ([5]; inhibitor 10 μM) [°C] | ΔTm at 10 µM ([6]; inhibitor 10 μM) [°C] | ΔTm at 10 µM ([7]; inhibitor 10 μM) [°C] | ΔTm at 10 µM [1] [°C] | ΔTm at 10 µM [2] [°C] | ΔTm at 10 µM [3] [°C] | ΔTm at 10 µM [4] [°C] | ΔTm at 10 µM [5] [°C] | ΔTm at 10 µM [6] [°C] | ΔTm at 10 µM [7] [°C]
NC1=NC(=O)/C(=C2\CCNC(=O)c3[nH]c(Br)cc32)N1 [Hymenialdisine, hymenialdisine, reference compound] | 5.7 | 0.4 | 3.8 | 0.6 | 3 | 2.7 | -0.2 | – | – | – | – | – | – | –
